Each molecule was assayed against Sodium channel protein type 9 subunit alpha (Homo sapiens, UniProt Q15858) (assay: cell-based).
Chain of Sodium channel protein type 9 subunit alpha (Q15858 whole entry): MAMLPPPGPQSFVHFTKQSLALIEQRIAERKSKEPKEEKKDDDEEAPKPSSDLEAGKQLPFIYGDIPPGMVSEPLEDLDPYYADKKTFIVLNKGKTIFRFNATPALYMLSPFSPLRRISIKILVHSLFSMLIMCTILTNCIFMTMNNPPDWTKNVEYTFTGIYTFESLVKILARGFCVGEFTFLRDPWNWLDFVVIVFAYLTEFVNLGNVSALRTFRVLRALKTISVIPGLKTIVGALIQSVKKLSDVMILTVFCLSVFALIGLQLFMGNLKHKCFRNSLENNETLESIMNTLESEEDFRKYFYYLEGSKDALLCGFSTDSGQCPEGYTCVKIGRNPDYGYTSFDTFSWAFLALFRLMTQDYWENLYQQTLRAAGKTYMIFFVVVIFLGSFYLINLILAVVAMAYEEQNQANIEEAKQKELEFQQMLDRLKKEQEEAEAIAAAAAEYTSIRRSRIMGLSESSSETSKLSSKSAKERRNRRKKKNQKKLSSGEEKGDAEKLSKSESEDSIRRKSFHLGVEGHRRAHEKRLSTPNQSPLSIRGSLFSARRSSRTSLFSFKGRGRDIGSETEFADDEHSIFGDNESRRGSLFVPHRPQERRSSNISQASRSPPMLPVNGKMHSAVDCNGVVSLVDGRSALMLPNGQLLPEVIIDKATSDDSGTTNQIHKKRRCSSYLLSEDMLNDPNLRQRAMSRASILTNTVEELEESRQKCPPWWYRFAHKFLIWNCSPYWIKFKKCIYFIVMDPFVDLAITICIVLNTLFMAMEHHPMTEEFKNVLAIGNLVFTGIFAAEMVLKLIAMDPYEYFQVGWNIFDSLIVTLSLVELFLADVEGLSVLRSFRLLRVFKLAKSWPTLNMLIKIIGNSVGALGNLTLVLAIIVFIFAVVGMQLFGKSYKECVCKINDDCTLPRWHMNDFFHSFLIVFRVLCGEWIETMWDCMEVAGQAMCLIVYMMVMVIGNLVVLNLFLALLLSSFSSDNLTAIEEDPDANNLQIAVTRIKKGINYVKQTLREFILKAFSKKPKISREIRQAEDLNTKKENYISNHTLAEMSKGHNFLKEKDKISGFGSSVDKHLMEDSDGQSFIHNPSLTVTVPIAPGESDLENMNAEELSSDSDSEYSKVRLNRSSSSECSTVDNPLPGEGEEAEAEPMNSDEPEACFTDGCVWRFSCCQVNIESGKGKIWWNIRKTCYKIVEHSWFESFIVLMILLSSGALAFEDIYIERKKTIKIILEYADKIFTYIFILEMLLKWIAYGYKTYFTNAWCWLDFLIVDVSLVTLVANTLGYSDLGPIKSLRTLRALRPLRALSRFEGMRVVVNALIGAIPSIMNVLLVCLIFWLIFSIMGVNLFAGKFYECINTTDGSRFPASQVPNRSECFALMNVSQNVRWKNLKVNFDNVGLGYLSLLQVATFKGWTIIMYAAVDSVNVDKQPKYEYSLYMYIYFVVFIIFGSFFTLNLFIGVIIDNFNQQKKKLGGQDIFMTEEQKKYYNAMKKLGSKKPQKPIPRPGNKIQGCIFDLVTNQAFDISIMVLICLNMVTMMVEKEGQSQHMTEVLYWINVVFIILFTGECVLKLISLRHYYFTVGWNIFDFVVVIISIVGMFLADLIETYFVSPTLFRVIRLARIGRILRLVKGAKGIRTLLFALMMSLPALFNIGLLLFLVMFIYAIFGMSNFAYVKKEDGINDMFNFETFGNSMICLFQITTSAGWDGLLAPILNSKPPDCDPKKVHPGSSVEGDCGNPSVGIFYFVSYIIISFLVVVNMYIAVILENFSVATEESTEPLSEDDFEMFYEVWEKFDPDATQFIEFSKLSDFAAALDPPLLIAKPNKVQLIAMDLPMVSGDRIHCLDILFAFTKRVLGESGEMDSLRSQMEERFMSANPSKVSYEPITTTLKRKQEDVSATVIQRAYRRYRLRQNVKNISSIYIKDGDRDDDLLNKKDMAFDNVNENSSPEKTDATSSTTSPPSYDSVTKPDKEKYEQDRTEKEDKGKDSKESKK

| SMILES | IC50 |
| --- | --- |
| O=S(=O)(Nc1cscn1)c1cc(Cl)c(Oc2cc(C(F)(F)F)ccc2-c2cn[nH]c2)cc1F | 0.26 µM |
| CCn1nccc1-c1cc(F)ccc1Oc1ccc(S(=O)(=O)Nc2nccs2)cc1C#N | 0.09 µM |
| CC(C)(C)OC(=O)n1cc(-c2cc(Cl)ccc2Oc2cc(F)c(S(=O)(=O)Nc3ncc(F)s3)cc2F)cn1 | 0.025 µM |
| Nc1cc(-c2cc(Cl)ccc2Oc2cc(F)c(S(=O)(=O)Nc3cscn3)cc2F)ccn1 | 0.019 µM |
| NC1=NCN=C1c1cc(Cl)ccc1Oc1cc(F)c(S(=O)(=O)Nc2ccncn2)cc1Cl | 0.021 µM |
| COc1cc(Oc2ccc(S(=O)(=O)Nc3ccc(F)cn3)cc2C#N)ccc1-n1cnc(C)c1 | 30 µM |
| N#Cc1ccc(Oc2cc(F)c(S(=O)(=O)Nc3ncns3)cc2Cl)c(-c2ccn[nH]2)c1 | 0.0094 µM |
| N#Cc1cc(S(=O)(=O)Nc2ncc(Cl)s2)ccc1Oc1ccc(F)cc1-c1cccc(N)n1 | 0.01 µM |
| O=S(=O)(Nc1ncc(Cl)s1)c1cc(Cl)c(Oc2ccc(Cl)cc2C2CNC2)cc1F | 0.01 µM |
| N#Cc1ccc(NS(=O)(=O)c2ccc(Oc3ccccc3-c3ccccc3)c(C#N)c2)nc1 | 25 µM |
| Cn1nccc1-c1cc(Cl)ccc1Oc1ccc(S(=O)(=O)Nc2cncnc2)cc1C#N | 30 µM |
| N#Cc1cc(S(=O)(=O)Nc2nccs2)ccc1Oc1ccccc1-c1ccno1 | 10 µM |
| O=S(=O)(Nc1cscn1)c1ccc(Oc2cc(C(F)(F)F)nn2-c2ccccc2)c(F)c1 | 10 µM |
| N#Cc1cnc(NS(=O)(=O)c2ccc(Oc3ccccc3-c3ccccc3)c(C#N)c2)nc1 | 10 µM |
| CC(C)(C)n1ccc(-c2c(F)cccc2Oc2ccc(S(=O)(=O)Nc3ncns3)cc2C#N)n1 | 10 µM |
| N#Cc1cc(S(=O)(=O)Nc2ncns2)ccc1Oc1cccc(Br)c1-c1cn[nH]c1 | 0.007 µM |
| O=S(=O)(Nc1ncns1)c1cc(F)c(Oc2ccc(Cl)cc2C2CCNCC2)cc1F | 0.0084 µM |
| O=S(=O)(Nc1cscn1)c1cc(F)c(Oc2ccc(Cl)cc2-c2ccnc(N3CCNCC3)c2)cc1F | 0.0037 µM |
| Cn1nccc1-c1cc(Cl)ccc1Oc1ccc(S(=O)(=O)Nc2cc[nH]n2)cc1C#N | 10 µM |
| Cn1nccc1-c1cc(Cl)ccc1Oc1ccc(S(=O)(=O)Nc2cccnc2)cc1C#N | 10 µM |
| N#Cc1cc(S(=O)(=O)Nc2cnoc2)ccc1Oc1ccccc1-c1ccccc1 | 10 µM |
| N#Cc1cc(S(=O)(=O)Nc2nccs2)ccc1Oc1ccc(-c2cnn(CC(F)(F)F)c2N)cc1 | 10 µM |
| CCc1nsc(NS(=O)(=O)c2ccc(Oc3ccccc3-c3ccccc3)c(C#N)c2)n1 | 10 µM |
| N#Cc1cc(S(=O)(=O)Nc2ncns2)ccc1Oc1cnc(N)nc1-c1ccc(Cl)cc1 | 10 µM |
| N#Cc1cc(S(=O)(=O)Nc2ncco2)ccc1Oc1ccccc1-c1ccccc1 | 10 µM |
| CC(C)c1nsc(NS(=O)(=O)c2ccc(Oc3ccccc3-c3ccccc3)c(C#N)c2)n1 | 10 µM |
| N#Cc1cc(S(=O)(=O)Nc2ncsn2)ccc1Oc1ccccc1-c1ccccc1 | 4.6 µM |
| N#Cc1cc(S(=O)(=O)Nc2cnsn2)ccc1Oc1ccccc1-c1ccccc1 | 5.68 µM |
| NCc1cc(-c2cc(Cl)ccc2Oc2cc(F)c(S(=O)(=O)Nc3ncns3)cc2Cl)ccn1 | 0.0049 µM |

Further lines, results first:

| IC50 | SMILES |
| --- | --- |
| 0.3 µM | Cc1nn(C(C)(C)C)cc1-c1cc(Cl)ccc1Oc1cc(F)c(S(=O)(=O)Nc2nncs2)cc1Cl |
| 0.3 µM | N#Cc1cc(S(=O)(=O)Nc2ncns2)ccc1Oc1cc(C(F)(F)F)nn1Cc1ccccc1 |
| 0.22 µM | Cn1nccc1-c1cc(C(F)(F)F)ncc1Oc1ccc(S(=O)(=O)Nc2ncc(Cl)s2)cc1C#N |
| 0.23 µM | N#Cc1cc(S(=O)(=O)Nc2nccs2)ccc1Oc1ccc(F)cc1-c1ccc(F)nc1 |
| 0.11 µM | N#Cc1cc(S(=O)(=O)Nc2ncns2)ccc1Oc1ccc(C(F)(F)F)cc1C1=CN(O)CC=C1 |
| 0.097 µM | N#Cc1cc(S(=O)(=O)Nc2ncc(Cl)s2)ccc1Oc1ccc(Cl)cc1-c1ccnc(N)c1 |
| 0.1 µM | N#Cc1cc(S(=O)(=O)Nc2nncs2)ccc1Oc1ccc(OC(F)(F)F)cc1-c1ccnnc1 |
| 0.05 µM | O=S(=O)(Nc1nncs1)c1ccc(Oc2ccc(Cl)cc2-c2ccn[nH]2)c(Cl)c1 |
| 0.056 µM | CC(C)(C)OC(=O)n1cc(-c2cc(Cl)ccc2Oc2cc(F)c(S(=O)(=O)Nc3nccs3)cc2F)cn1 |
| 0.022 µM | CCN1CC(n2nccc2-c2cc(C(F)(F)F)ccc2Oc2ccc(S(=O)(=O)Nc3cscn3)cc2C#N)C1 |
| 0.012 µM | N#Cc1cc(S(=O)(=O)Nc2ncns2)ccc1Oc1ccc(Cl)cc1-c1ccnn1C1CCC1 |
| 30 µM | N#Cc1cc(S(=O)(=O)Nc2ccc(F)cn2)ccc1Oc1ccc(CN2CCC2)c(F)c1 |
| 30 µM | Cc1nc(-c2ccccc2Oc2ccc(S(=O)(=O)Nc3ccc(F)cn3)cc2C#N)cs1 |
| 0.017 µM | N#Cc1cc(S(=O)(=O)Nc2ncns2)ccc1Oc1ccc(Cl)cc1-c1ccnn1C1CC1 |
| 0.0088 µM | N#Cc1cc(S(=O)(=O)Nc2ncns2)ccc1Oc1ccc(C(F)(F)F)cc1C1CCOCC1 |
| 14 µM | CCn1nc(C(F)(F)F)cc1-c1ccc(Oc2ccc(S(=O)(=O)Nc3ncccc3F)cc2C#N)cc1 |
| 10 µM | O=S(=O)(Nc1nccs1)c1ccc(Oc2ccc(Oc3ccccc3)cc2)c(F)c1 |
| 10 µM | Cc1cc(Oc2ccc(S(=O)(=O)Nc3ncc(Cl)s3)cc2C#N)n(C2CCCCC2)n1 |
| 10 µM | N#Cc1cc(S(=O)(=O)Nc2nccs2)ccc1Oc1ccccc1-c1nncn1-c1ccccc1 |

| IC50 | SMILES |
| --- | --- |
| 10 µM | N#Cc1cc(S(=O)(=O)Nc2nccs2)ccc1Oc1cc(C2CC2)nn1-c1ccccn1 |
| 10 µM | CCn1nc(C(F)(F)F)cc1-c1ccc(Oc2ccc(S(=O)(=O)Nc3ccc(C#N)cn3)cc2C#N)cc1 |
| 10 µM | Cc1cncnc1NS(=O)(=O)c1ccc(Oc2ccccc2-c2ccccc2)c(C#N)c1 |
| 10 µM | Cc1cnc(NS(=O)(=O)c2ccc(Oc3ccccc3-c3ccccc3)c(C#N)c2)nc1 |
| 12.2 µM | N#Cc1cnc(NS(=O)(=O)c2ccc(Oc3ccccc3-c3ccccc3)c(C#N)c2)s1 |
| 0.012 µM | N#Cc1cc(S(=O)(=O)Nc2ncns2)ccc1Oc1ccc(C(F)(F)F)cc1-c1cccnc1 |
| 12.5 µM | CNc1ncc(Oc2ccc(S(=O)(=O)Nc3ncns3)cc2C#N)c(-c2ccc(F)cc2)n1 |
| 10 µM | Cc1cnc(NS(=O)(=O)c2ccc(Oc3ccc(Cl)cc3-c3ccnn3C)c(C#N)c2)cn1 |
| 10 µM | Cn1nccc1NS(=O)(=O)c1ccc(Oc2ccc(Cl)cc2-c2ccnn2C)c(C#N)c1 |
| 10 µM | Cc1nonc1NS(=O)(=O)c1ccc(Oc2ccc(Cl)cc2-c2ccnn2C)c(C#N)c1 |
| 10 µM | COc1nccnc1NS(=O)(=O)c1ccc(Oc2ccc(Cl)cc2-c2ccnn2C)c(C#N)c1 |
| 10 µM | N#Cc1cc(S(=O)(=O)Nc2ncns2)ccc1Oc1nccnc1-c1ccccc1 |
| 10 µM | N#Cc1cc(S(=O)(=O)Nc2ncns2)ccc1Oc1nnccc1-c1ccccc1 |
| 10 µM | N#Cc1cc(S(=O)(=O)Nc2ncns2)ccc1Oc1ccccc1Oc1ccccc1C(N)=O |
| 10 µM | N#Cc1cc(S(=O)(=O)Nc2ccccc2)ccc1Oc1ccccc1-c1ccccc1 |
| 10 µM | N#Cc1cc(S(=O)(=O)Nc2cc(C(F)(F)F)ncn2)ccc1Oc1ccccc1-c1ccccc1 |
| 6.44 µM | Cc1ccc(Oc2ccc(S(=O)(=O)Nc3nccs3)cc2F)c(-c2ccn(C)n2)c1 |
| 0.0024 µM | Nc1cc(-c2cc(OC(F)(F)F)ccc2Oc2cc(F)c(S(=O)(=O)Nc3ncns3)cc2F)ccn1 |
| 3.3 µM | N#Cc1cc(S(=O)(=O)Nc2nccs2)ccc1Oc1ccc(-c2ccc(C(F)(F)F)cn2)cc1 |

From ChEMBL document CHEMBL2321810, “QSAR investigation of NaV1.7 active compounds using the SVM/Signature approach and the Bioclipse Modeling platform” (Bioorg Med Chem Lett, 2013)
